From patent US20240342198A1, “TREATMENT OF IR[…] SUBJECTS WITH AUTISM SPECTRUM DISORDERS WITH MODERATE TO SEVERE ANXIETY AND/OR SOCIAL AVOIDANCE” (ZYNERBA PHARMACEUTICALS, INC., priority 2021, published 2024)

Columns and labels:
[1] = test system: patients with FXS and comorbid ASD; test: Pooled placebo-controlled data: Week 12 change in ABC-C Irritability, 156 subjects; format: in vivo, human; settings: subgroup comparison
Description: The data collected from the studies presented herein, and other similar studies were pooled together and analyzed. […] The subjects had moderate to severe symptoms of ASD (ADOS-2, comparison score greater than, or equal to, 5). The data presented in Table 2 is the Week 12 change in ABC-C Irritability of all patients. In previous studies (such as presented in Example 1, Table 1) the data was enriched by removing the non-completers from the analysis and only presenting data from the completers.

[2] = test system: children and adolescents with autism spectrum disorder; test: BRIGHT study: open-label safety, tolerability and efficacy study of ZYN002 transdermal gel, 14 weeks; format: in vivo, human; settings: subgroup comparison
Experimental: An exploratory open-label safety, tolerability and efficacy study of Zygel™ ZYNO02 transdermal gel to 37 children and adolescents with autism spectrum disorder was conducted. The patient population (ages 4 through 17 years old) were predominantly moderate-to-severe ASD patients. ASD was confirmed by Diagnostic and Statistical Manual of Mental Disorders, 5th edition (DSM-5) diagnostic criteria to assess the safety and efficacy of ZYNO02 in treating ASD-related behaviors as measured by a variety of efficacy assessments. These included the Aberrant Behavior Checklist-Community (ABC-C); the Autism Diagnostic Observation Schedule®, 2nd Edition (ADOS-2); and the Parent Rated Anxiety Scale-Autism Spectrum Disorder (PRAS-ASD). ZYNO02 was administered to patients with moderate-to-severe symptoms of ASD as add-on therapy to their standard of care.
The majority of the patients were male (92%) with a mean age of 9.2 years. […] The majority of patients had moderate or severe ASD at baseline as measured by the ADOS®-2 comparison score (94%) and Diagnostic and Statistical Manual of Mental Disorders, 5th edition, severity levels (92%). […]
The trial evaluated multiple efficacy assessments, including the ABC-C, PRAS-ASD, Autism Parenting Stress Index, Autism Impact Measure (AIM), and Clinical Global Impression-Severity (CGI-S) and Improvement (CGI-I). […]

For `C=C(C)C1CCC(C)=CC1c1c(O)cc(CCCCC)cc1O` (centres unmarked) [CBD, 2-[3-methyl-6-(1-methylethenyl)-2-cyclohexen-1-yl]-5-pentyl-1,3-benzenediol], which “improvement in irritability, ABC-CFXS Social Avoidance score > 7 compared to ≤ 7” value [1] is on record?
Its value is “twice as much improvement in irritability”.

What about the “improvement in irritability, PRAS score > 37 compared to ≤ 37” value [2] of the same compound?
Its value is “twice as much improvement in irritability”.
